How the values were obtained:
[1] = Cmax in Wistar rat at 10 mg/kg administered via oral gavage after 24 hrs by LC-MS/MS analysis; type: ADME, organism-based; design: dose 10 mg/kg, route oral; conditions: in vivo
Rattus norvegicus [2] = experiment: Cmax in Wistar rat assessed as 2-(4-(3,3-Difluoropyrrolidin-1-yl)phenyl)-5,7-difluoro-3-methylquinolin-4(1H)-one at 10 mg/kg administered via oral gavage after 24 hrs by LC-MS/MS analysis; type: ADME, organism-based; design: dose 10 mg/kg, route oral; conditions: in vivo
Rattus norvegicus [3] = experiment: AUC in Wistar rat assessed as 2-(4-(3,3-Difluoropyrrolidin-1-yl)phenyl)-5,7-difluoro-3-methylquinolin-4(1H)-one at 10 mg/kg administered via oral gavage after 24 hrs by LC-MS/MS analysis; type: ADME, organism-based; design: dose 10 mg/kg, time < 24 hr, route oral; conditions: in vivo
Rattus norvegicus [4] = experiment: Oral bioavailability in Wistar rat assessed as 2-(4-(3,3-Difluoropyrrolidin-1-yl)phenyl)-5,7-difluoro-3-methylquinolin-4(1H)-one at 50 mg/kg administered via gavage after 24 hrs by LC-MS/MS analysis; type: ADME, organism-based; conditions: in vivo
Rattus norvegicus [5] = experiment: Half life in Wistar rat assessed as 2-(4-(3,3-Difluoropyrrolidin-1-yl)phenyl)-5,7-difluoro-3-methylquinolin-4(1H)-one at 0.5 mg/kg, iv after 24 hrs by LC-MS/MS analysis; type: ADME, organism-based; conditions: in vivo
[6] = Half life in Wistar rat at 50 mg/kg administered via oral gavage after 24 hrs by LC-MS/MS analysis; type: ADME, organism-based; conditions: in vivo
Rattus norvegicus [7] = experiment: Oral bioavailability in Wistar rat assessed as 2-(4-(3,3-Difluoropyrrolidin-1-yl)phenyl)-5,7-difluoro-3-methylquinolin-4(1H)-one at 10 mg/kg administered via gavage after 24 hrs by LC-MS/MS analysis; type: ADME, organism-based; conditions: in vivo
[8] = Oral bioavailability in Wistar rat at 50 mg/kg administered via gavage after 24 hrs by LC-MS/MS analysis; type: ADME, organism-based; conditions: in vivo
Rattus norvegicus [9] = experiment: Volume of distribution in steady state in Wistar rat assessed as 2-(4-(3,3-Difluoropyrrolidin-1-yl)phenyl)-5,7-difluoro-3-methylquinolin-4(1H)-one at 0.5 mg/kg, iv after 24 hrs by LC-MS/MS analysis; type: ADME, organism-based; conditions: in vivo
Rattus norvegicus [10] = experiment: AUC in Wistar rat assessed as 2-(4-(3,3-Difluoropyrrolidin-1-yl)phenyl)-5,7-difluoro-3-methylquinolin-4(1H)-one at 50 mg/kg administered via oral gavage after 24 hrs by LC-MS/MS analysis; type: ADME, organism-based; design: dose 50 mg/kg, time < 24 hr, route oral; conditions: in vivo
[11] = Prodrug activation in Sprague-Dawley rat assessed as 2-(4-(3,3-difluoropyrrolidin-1-yl)phenyl)-5,7-difluoro-3-methylquinolin-4(1H)-one formation in bile at 50 mg/kg, po via gavage up to 9 hrs by HPLC analysis; type: organism-based; conditions: in vivo
[12] = Oral bioavailability in Wistar rat at 10 mg/kg administered via gavage after 24 hrs by LC-MS/MS analysis; type: ADME, organism-based; conditions: in vivo
Rattus norvegicus [13] = experiment: AUC in Wistar rat assessed as 2-(4-(3,3-Difluoropyrrolidin-1-yl)phenyl)-5,7-difluoro-3-methylquinolin-4(1H)-one at 0.5 mg/kg, iv after 24 hrs by LC-MS/MS analysis; type: ADME, organism-based; design: time < 24 hr, dose 0.5 mg/kg, route intravenous; conditions: in vivo
[14] = Drug metabolism in Sprague-Dawley rat assessed as M2 metabolite formation in bile at 50 mg/kg, po via gavage up to 9 hrs by HPLC analysis; type: ADME, organism-based; conditions: in vivo
[15] = Drug metabolism in Sprague-Dawley rat assessed as 2-(4-(3,3-difluoro-4-hydroxypyrrolidin-1-yl)phenyl)-5,7-difluoro-3-methylquinolin-4(1H)-one metabolite formation in urine at 50 mg/kg, po via gavage up to 9 hrs by HPLC analysis; type: ADME, organism-based; conditions: in vivo
[16] = Cmax in Wistar rat at 50 mg/kg administered via oral gavage after 24 hrs by LC-MS/MS analysis; type: ADME, organism-based; design: dose 50 mg/kg, route oral; conditions: in vivo
[17] = Drug metabolism in Sprague-Dawley rat assessed as 2-(4-(3,3-difluoro-4-hydroxypyrrolidin-1-yl)phenyl)-5,7-difluoro-3-methylquinolin-4(1H)-one metabolite formation in bile at 50 mg/kg, po via gavage up to 9 hrs by HPLC analysis; type: ADME, organism-based; conditions: in vivo
[18] = Drug metabolism in Sprague-Dawley rat assessed as M1 metabolite formation in bile at 50 mg/kg, po via gavage up to 9 hrs by HPLC analysis; type: ADME, organism-based; conditions: in vivo
[19] = Prodrug activation in Sprague-Dawley rat assessed as 2-(4-(3,3-difluoropyrrolidin-1-yl)phenyl)-5,7-difluoro-3-methylquinolin-4(1H)-one formation in urine at 50 mg/kg, po via gavage up to 9 hrs by HPLC analysis; type: organism-based; conditions: in vivo
Rattus norvegicus [20] = experiment: Clearance in Wistar rat assessed as 2-(4-(3,3-Difluoropyrrolidin-1-yl)phenyl)-5,7-difluoro-3-methylquinolin-4(1H)-one at 0.5 mg/kg, iv after 24 hrs by LC-MS/MS analysis; type: ADME, organism-based; conditions: in vivo
[21] = Drug metabolism in Sprague-Dawley rat assessed as M3 metabolite formation in bile at 50 mg/kg, po via gavage up to 9 hrs by HPLC analysis; type: ADME, organism-based; conditions: in vivo
Rattus norvegicus [22] = experiment: Half life in Wistar rat assessed as 2-(4-(3,3-Difluoropyrrolidin-1-yl)phenyl)-5,7-difluoro-3-methylquinolin-4(1H)-one at 10 mg/kg administered via oral gavage after 24 hrs by LC-MS/MS analysis; type: ADME, organism-based; conditions: in vivo
[23] = Retention time of compound by HPLC anlaysis
[24] = AUC in Wistar rat at 10 mg/kg administered via oral gavage after 24 hrs by LC-MS/MS analysis; type: ADME, organism-based; design: dose 10 mg/kg, time < 24 hr, route oral; conditions: in vivo
Rattus norvegicus [25] = experiment: Half life in Wistar rat assessed as 2-(4-(3,3-Difluoropyrrolidin-1-yl)phenyl)-5,7-difluoro-3-methylquinolin-4(1H)-one at 50 mg/kg administered via oral gavage after 24 hrs by LC-MS/MS analysis; type: ADME, organism-based; conditions: in vivo
Rattus norvegicus [26] = experiment: Cmax in Wistar rat assessed as 2-(4-(3,3-Difluoropyrrolidin-1-yl)phenyl)-5,7-difluoro-3-methylquinolin-4(1H)-one at 50 mg/kg administered via oral gavage after 24 hrs by LC-MS/MS analysis; type: ADME, organism-based; design: dose 50 mg/kg, route oral; conditions: in vivo
[27] = Drug metabolism in Sprague-Dawley rat assessed as M3 metabolite formation in urine at 50 mg/kg, po via gavage up to 9 hrs by HPLC analysis; type: ADME, organism-based; conditions: in vivo
[28] = Half life in Wistar rat at 10 mg/kg administered via oral gavage after 24 hrs by LC-MS/MS analysis; type: ADME, organism-based; conditions: in vivo
[29] = AUC in Wistar rat at 50 mg/kg administered via oral gavage after 24 hrs by LC-MS/MS analysis; type: ADME, organism-based; design: time < 24 hr, dose 50 mg/kg, route oral; conditions: in vivo

`CC(=O)Oc1c(C)c(-c2ccc(N3CCC(F)(F)C3)cc2)nc2cc(F)cc(F)c12` gave a Cmax [1] of 1700 ng/mL, a Cmax (Rattus norvegicus [2]) of 0.61 µg/mL and an AUC (Rattus norvegicus [3]) of 5.4 mg·h/L. It also gave an F (Rattus norvegicus [4]) of 17.1%, a t1/2 (Rattus norvegicus [5]) of 1.48 h and a half-life [6] of 138 min. The F (Rattus norvegicus [7]) was 28%, the bioavailability [8] was 30.7% and the Vdss (Rattus norvegicus [9]) was 0.291 L/kg. For the same molecule, the AUC (Rattus norvegicus [10]) was 16.5 mg·h/L, the Drug metabolism [11] was “Metabolite_Detected” and the bioavailability [12] was 63.8%. The AUC (Rattus norvegicus [13]) was 0.964 mg·h/L, the Drug metabolism [14] was “Metabolite_Detected” and the Drug metabolism [15] was “Metabolite_Detected”. The Cmax [16] was 4000 ng/mL, the Drug metabolism [17] was “Metabolite_Detected” and the Drug metabolism [18] was “Metabolite_Detected”. The Drug metabolism [19] was “Metabolite_Detected”, the CL (Rattus norvegicus [20]) was 0.524 L/h/kg and the Drug metabolism [21] was “Metabolite_Detected”. The t1/2 (Rattus norvegicus [22]) was 3.8 h, the Retention time [23] was 14.3 min and the AUC at 24 h [24] was 12300 ng·h/mL. For the same molecule, the t1/2 (Rattus norvegicus [25]) was 4.2 h, the Cmax (Rattus norvegicus [26]) was 1.4 µg/mL and the Drug metabolism [27] was “Metabolite_Detected”. The half-life [28] was 234 min and the AUC at 24 h [29] was 29600 ng·h/mL.

— ChEMBL document CHEMBL4049411, “Rational Design, Synthesis, and Biological Evaluation of Heterocyclic Quinolones Targeting the Respiratory Chain of Mycobacterium tuberculosis” (J Med Chem, 2017)
